Values joined by “and” are separate entries in the source; they are usually repeats but may differ in a detail not shown here. Identical values can stand only once. Bridge positions count the residues as written; N and C are the ends. Peptide text beside a SMILES is read from it.

Assay [1] concerns IFN-gamma production of activated PBMCs. Kind of assay: IFN-gamma secretion of PBMC, ELISA-based FACS. It counts as cell-based, human. Conditions: for IFN-gamma production as compared to the control, 36 h: 36 h past stimulation. Here is the method:
FIG. 14. IFN-γ secretion by cyclotide-treated PBMC. […] Untreated cells were used as control. Following 24 h or 36 h of cultivation, the cells were restimulated with PMA/Ionomycin for further 6 hour. The amount of IFN-γ was measured in the supernatant of cultured cells using an ELISA-based flow cytometric method. The data are presented as mean and standard deviation (SD) of three independent experiments.
(§1) Activated cells were resuspended in 50 μl of medium, transferred into a 96-well plate and treated with 10 μg/ml PHA-L. After incubation for 24 h cells were re-stimulated with PMA (50 ng/ml) und ionomycin (500 ng/ml) for 6 h. Next, the cells were transferred into Eppendorf tubes, centrifuged (5 min, 3000 RPM, 20° C.) und 50 μl of the supernatant was again transferred into new tubes and stored at −20° C. Production of cytokines was measured and quantified using the FlowCytomix™ kit according to manufacturer's instructions.
Therefore it is of interest to determine whether cyclotides only have anti-proliferative effects or also affect the effector function of T-lymphocytes, which would directly relate to changes in the IFN-gamma and TNF-alpha production. Therefore, the production of both cytokines of cyclotide-treated, activated PBMCs at an early time point after PBMC activation was tested.
(In general: An ELISA detects its analyte on a solid surface through an enzyme-linked reagent.)

Assay [2] deals with splenic T-cells of naive mouse group. In words: Cytokine release of splenic T-cells of naive EAE mice treated in vitro, ELISA. It counts as cell-based. The conditions noted are these: for IL2 release after 48 h incubation: V10K 4 μM, MOG35-55 30 μg/mL. The method, then: FIG. 22. Effect on cytokine release of ex vivo isolated PBMC at day 1 and 2. […] To approve this EAE TH bias towards TH17 and TH1 cells, IL4 release was again analyzed, but this TH2 cytokine was not detectable (I, J), as already indicated in (D).
Spleens of sacrificed mice were taken and transferred into a 6 cm Petri Dish with 5 mL sterile PBS. To receive a spleenocyte suspension, spleens were meshed and filtered through 70 μm nylon sieve. Cells were centrifuged at 1200 rpm for 5 minutes and resuspended in RPMI 1640 media supplemented with 10% fetal calf serum (FCS), 2 mM L-glutamine, penicillin (100 U/mL), and streptomycin (100 μg/mL). Spleenocytes were cultivated at a concentration of 3×10^6/mL in a 48-well flat-bottom plate (500 μL/well). Cells were stimulated with 30 μg/mL MOG35-55 or left untreated and incubated at 37° C. for three days. Supernatants and cells were taken stored at −20° C. until further experiments. […] After 12 hours MOG or T20K was added to appropriate wells. Supernatants were stored after 24 hours and after 48 hours at −20° C.
Supernatants of stimulated spleenocytes were analyzed for their IL2, IL17, INFγ, IL4 and IL22 cytokine release using anti-mouse antibodies for ELISA from eBioscience according to the manufacturer's instructions. The color reaction was evaluated at an optical density of 450 nm by the microplate reader Synergy H4 (BioTek).

For a further assay, the system named is nematodes. In words: Relative nematocidal activity (other assays, Table 2). It counts as in vivo. The conditions noted are these: some cells print two values separated by a slash.
For the next assay, the system named is PHA-L-stimulated PBMC. Kind of assay: Proliferation of PHA-L-stimulated CFSE-labelled PBMC with or without exogenous IL-2. In kind it is cell-based, human. The conditions noted are these: cyclotides 4 μM, CsA 5 μg/mL, 3 day culture; for proliferation with exogenous IL-2: IL-2 10 U/mL. Here is the method: FIG. 13. Proliferation capacity of cyclotide-treated PBMC in the presence of exogenous IL-2. […] The cells were cultured without exogenous IL-2 (10 U/mL) (A and B) or in the presence of IL-2 (C and D). The CFSE-labelled cells were measured after a 3 day culture period by flow cytometry and representative data are presented in dot plots (A and C). Data are presented as mean and standard deviation (SD) of three independent experiments.
(§2) Following purification, PBMCs were equilibrated for 2 h at 37° C. […] This was followed by washing of each well with 100 μl PBS (centrifugation for 5 min, 1000 rpm, 20° C.) and re-suspending the cells in 100 μl medium for further assays.
Purified PBMCs (5*10^6 cells/ml) were incubated with […] of the fluorescent dye CFSE (5-carbofluoreszenein-ciacetat-succinylester) for 10 min at 37° C. The reaction was stopped using medium, cells were washed one time with medium by centrifugation (10 min, 300×g, 20° C.) and diluted with medium to 4*10^6 cells/ml.

A further assay deals with IL-2 release in PBMCs. In words: IL-2 release of PBMC, ELISA-based FACS. Conditions: PHA-L 24 h, PMA/ionomycin 6 h; T20K 4 μM, CsA 5 μg/mL. It counts as cell-based, human. The method, then: as §2, §1
To analyze the mechanism of cyclotide-mediated anti-proliferation of T-lymphocytes, their effect on the direct release of IL-2 in PBMCs was determined. The cells were treated with a cyclotide and activated with PHA-L. After 24 h the cells were re-stimulated with PMA and ionomycin and the IL-2 concentration in the supernatant (released IL-2) was measured with an ELISA-based FACS methodology (FIG. 12A).

For assay [3], the system named is degranulation marker LAMP-1 (CD107a) on activated PBMC. In words: CD107a degranulation analysis. The conditions noted are these: after 36 h; T20K 4 μM, CsA 5 μg/mL. It counts as cell-based, human. Here is the method: FIG. 16. Degranulation capacity of cyclotide-treated activated human PBMC. […] After 36 hour of cultivation the cells were restimulated with PMA/Ionomycin for 2.5 hours in the presence of a CD107a mAbs and GolgiStop reagent to determine the amount of degranulation by flow cytometry. Representative data are shown in dot plots (A) and in (B) data are presented as mean and standard deviation (SD) of three independent experiments.
Activated cells were grown for 36 h and then treated for re-stimulation with PMA (50 ng/ml) und ionomycin (500 ng/ml) and stained with CD107a PE. After 1 h the reaction was stopped with 2 μl Golgi-Stop (1:10) and incubated for 2.5 h at 37° C. The cells were transferred into a 96-well plate, centrifuged (5 min, 1000 RPM, 20° C.) and washed with 100 μl FACS-buffer. Afterwards, PBMCs were stained with CD8 PE-Cy5 for 15 min at 4° C. and following to wash cycles with FACS-buffer the cells were resuspended in 100 μl, transferred into FACS vials with a total volume of 250 μl and the degranulation was measured by FACS analysis.
After determining the influence of cyclotide treatment on the effector function of PBMCs on the basis of measuring IFN-gamma and TNF-alpha cytokine levels, it is of interest to determine an effect of cyclotides on the degranulation activity. Activation of cytotoxic CD8^+-lymphocytes lead to a release of cytolytic granules, which contain/express lysosomal-associated membrane protein 1 (CD107; LAMP-1). During degranulation, the granule vesicle membranes fuse with the membranes of activated CD8^+-lymphocytes and therefore LAMP-1 can be used as a marker protein for the cytotoxic activity of T-lymphocytes, which can be measured with FACS. After 36 h, 42%±21.4 of the CsA- and 49%±16.8 of the T20K-treated cells contain the degranulation marker LAMP-1 as compared to the control (FIG. 16). This can be interpreted in the way that CsA- and T20K-treated cells have reduced cytotoxicity.

As for `CC(C)C[C@@H]1NC(=O)CNC(=O)[C@H](CC(N)=O)NC(=O)[C@H](CCCNC(=N)N)NC(=O)[C@H]([C@@H](C)O)NC(=O)[C@@H]2CSSC[C@@H]3NC(=O)[C@H]([C@@H](C)O)NC(=O)CNC(=O)CNC(=O)[C@H](C(C)C)NC(=O)[C@@H]4CSSC[C@H](NC(=O)[C@H](CCCCN)NC(=O)[C@H](CSSC[C@H](NC(=O)[C@H](C(C)C)NC(=O)[C@@H]5CCCN5C1=O)C(=O)NCC(=O)N[C@@H](CCC(=O)O)C(=O)N[C@@H]([C@@H](C)O)C(=O)N4)NC(=O)CNC(=O)[C@@H]1CCCN1C(=O)[C@H]([C@@H](C)O)NC(=O)[C@H](CC(N)=O)NC3=O)C(=O)N[C@@H](CO)C(=O)N[C@@H](Cc1c[nH]c3ccccc13)C(=O)N1CCC[C@H]1C(=O)N[C@@H](C(C)C)C(=O)N2` [Kalata T20K] (cyclo(CGETCVGGTCNTPGCKCSWPVCTRNGLPV); disulfide 1-15, 5-17, 10-22 (inferred); ring closure inferred), in assay [1] (24 h + 6 h PMA/ionomycin, T20K 4 μM, CsA 5 μg/mL), the “IFN-gamma concentration as compared to the control, 24 h” value is 21%±13.2. Moreover, in assay [1], the “IFN-gamma production as compared to the control, 36 h” value is listed as “did not induce significant changes in the level of IFN-gamma”. In assay [2] (T20K 4 μM), the “IL17 production after 48 h” value is on record as “inhibited” and the “IL2 release after 48 h incubation” value is listed as “significantly inhibited”. The “IL2 inhibition after 24 h” value in assay [2] (T20K 4 μM compared with CsA 5 μg/mL) is reported as “non-significant to the immune suppressive agent CsA”. In assay [2] (dependent on the cyclotide addition), the “INFγ and IL22 cytokine release” value is “repressed significantly”. The “Relative activity in other assays (fold difference to kB1): nematocidal” value with nematodes is 3.0 fold difference to kB1 and 2.6 fold difference to kB1. In the assay with PHA-L-stimulated PBMC, the “proliferation with exogenous IL-2” value was 91%±1.4 and the “proliferation as compared to the control cells, without exogenous IL-2” value was 29%±24. In the assay with IL-2 release in PBMCs, the “IL-2 release as compared to the control cells” value is 24%±18.6. For the same compound, in assay [3], the “cells containing the degranulation marker LAMP-1 as compared to the control” value is 49%±16.8.

For “kalata B1 mutant GLPVCGETCKGGTCNTPGCTCSWPVCTRN (SEQ ID No. 10) [Kalata V10K]”, the “IFN-gamma production as compared to the control, 36 h” value in assay [1] is “did not induce significant changes in the level of IFN-gamma”. Further, the “IL2 release after 48 h incubation” value in assay [2] (T20K 4 μM) was “shows a inhibitory capacity towards IL2 release”. The “Relative activity in other assays (fold difference to kB1): nematocidal” value in the assay on nematodes is given as <0.2 fold difference to kB1. For the same compound, in the assay on PHA-L-stimulated PBMC, the “proliferation with exogenous IL-2” value was “did not change the effect on proliferation” and the “proliferation as compared to the control cells, without exogenous IL-2” value was “no effect on the proliferation”. In the assay with IL-2 release in PBMCs, the “IL-2 release as compared to the control cells” value was “no effect on the release of IL-2”. In assay [3], the “cells containing the degranulation marker LAMP-1 as compared to the control” value is reported as “no influence on the degranulation activity”.

The values are drawn from patent publication US10357537B2, “Cyclotides as immunosuppressive agents” (priority 2011, dated 2019).
